{
  "source": "ChEMBL document CHEMBL5338822",
  "about": "“The Role of Allylic Strain for Conformational Control in Medicinal Chemistry” (J Med Chem, 2023)",
  "key": {"[1]": {"biological_target": "T1, Sphingosine 1-phosphate receptor 1 (Homo sapiens, UniProt P21453)", "T1 sequence (P21453 whole entry)": "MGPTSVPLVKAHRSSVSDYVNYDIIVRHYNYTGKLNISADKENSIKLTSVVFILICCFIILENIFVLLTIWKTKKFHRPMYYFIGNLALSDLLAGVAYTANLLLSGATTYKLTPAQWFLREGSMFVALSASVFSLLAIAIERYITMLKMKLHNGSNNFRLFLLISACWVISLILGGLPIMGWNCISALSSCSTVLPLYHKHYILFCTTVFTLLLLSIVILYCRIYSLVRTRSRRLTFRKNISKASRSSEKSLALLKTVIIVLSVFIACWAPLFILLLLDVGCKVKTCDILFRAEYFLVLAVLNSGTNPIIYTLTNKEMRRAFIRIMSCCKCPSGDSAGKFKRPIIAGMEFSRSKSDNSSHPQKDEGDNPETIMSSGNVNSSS", "assay": "Antagonist activity at human S1P1 transfected in CHO cells incubated for 120 mins by [gamma-35S]GTP binding assay", "type": "functional, cell-based"}, "[2]": {"biological_target": "T1, Sphingosine 1-phosphate receptor 1", "assay": "Inhibition of human S1P1 expressed in human HeLa cells incubated for 20 mins by FLIPR assay", "type": "cell-based"}},
  "data": [
    {"smiles": "Cc1cc(-c2cccc(NCc3ccc(Cl)c(Cl)c3)c2)ccc1C(=O)N[C@@H](C)C(=O)O", "values": [
      {"measurement": "IC50", "setting": "[1]", "value": 4.27, "unit": "µM"},
      {"measurement": "IC50", "setting": "[2]", "value": 170, "unit": "nM"}
    ]}
  ]
}
